Patent US5182279A, “Benzothienopyrazinedione compounds and their preparation and use” (Novo Nordisk A/S, priority 1990, dated 1993)

Assays:
[1] = system: glycine site coupled to the NMDA ionophor complex; conditions: literature, in words; cited from earlier work
[2] = target: T1, glycine site of the NMDA receptor complex (Rattus norvegicus, UniProt P35439); test: [3H]-glycine binding (Test 1); conditions: displacement of 50% of specific [3H]-glycine binding; rat cerebral cortical membrane homogenate, pH 7.1, 0° C., 10 min
T1 construct: thawed rat cerebral cortical membrane homogenate; from tissue; host or cells: rat cerebral cortical membrane homogenate
Procedure: The glycine site binding activity of these compounds of the present invention can be illustrated by determining their capability for displacing radioactively labelled glycine from the glycine site.
The displacement activity of the compounds may be shown by determining the IC50 value which represents the concentration (μM) which causes a displacement of 50% of the specific binding of [^3 H]-glycine.
^3 H]-glycine binding (Test 1)
1 ml of thawed rat cerebral cortical membrane homogenate in HEPES-Tris (5 mM) and MgCl2 (1 mM) pH 7.1 were incubated at 0° C. for 10 min. with […] and the test compound and buffer. Non-specific binding was determined by incubating with D-serine (1 mM final concentration). The binding reaction was terminated by centrifugation at 15,000 ×g at 4° C. followed by washing of the pellet with three times 3 ml of ice-cold buffer. Bound radioactivity was measured by scintillation counting. IC50 was determined by Hill analysis of at least four concentrations of test compound.

[3] = system: NMDA stimulated [3H]-GABA release from cultured mouse cerebral cortex interneurons; test: Inhibition of NMDA stimulated [3H]-GABA release from cultured mouse cerebral cortex interneurons (Test 3); format: cell-based; conditions: inhibits 50% of NMDA induced [3H]-GABA release, 3 μg/ml NMDA, 37° C.
Excerpt: The NMDA antagonistic properties of the compounds is illustrated by determining their capability to antagonize NMDA stimulated [^3 H]-GABA release from cultured mouse cortex neurons. The NMDA antagonistic activity of the compounds may be shown by determining the IC50 value, which represents the concentration (μM) which inhibits 50% of NMDA induced [^3H]-GABA release.
Inhibition of NMDA stimulated [^3 H]-GABA release from cultured mouse cerebral cortex interneurons (Test 3)
Release experiments are performed using the model described by Drejer et al. (Life Sci. 38, 2077 (1986)). To cerebral cortex interneurons cultured in petri dishes (30 mm) are added 100 μg/ml 3-vinyl-GABA one hour before the experiment in order to inhibit degradation of GABA in the neurons. 30 min. before the experiment 5 μCi [^3 H]-GABA added to each culture and after this preloading period the cells are washed twice with HEPES buffered saline (HBS) containing 10 mM HEPES, 135 mM NaCl, 5 mM KCl, 0.6 mM MgSO4, 1.0 mM CaCl2 and 6 mM D-glucose; pH 7 and placed in a superfusion system. This system consists of a peristaltic pump continuously delivering thermostated 37° C. superfusion medium from a reservoir to the top of a slightly tilted petri dish. The cell monolayer at the bottom of the dish is covered with a piece of nylon mesh to facilitate dispersion of medium over the cell layer. The medium is continuously collected from the lower part of the dish and delivered to a fraction collector. Initially, the cells are superfused with HBS for 15 min. (flow rate 2 ml/min.). Then cells are stimulated for 30 sec. every 4 min. by changing the superfusion medium from HBS to a corresponding medium containing NMDA and antagonist according to the following scheme:
Stimulation no. 1: 3 μg/ml NMDA
Stimulation no. 2: 3 μg/ml NMDA +0.3 μg/ml antagonist
Stimulation no. 3: 3 μg/ml NMDA +3.0 μg/ml antagonist
The release of [^3 H]-GABA in the presence of NMDA is corrected for the mean basal release before and after stimulation. The stimulated release in the presence of antagonist is expressed relative to the stimulated release by NMDA alone and the IC50 value is calculated.

[4] = target: T1, glycine site of the NMDA receptor complex; test: Antagonism of glycine enhanced [3H]-MK-801 binding (Test 2); conditions: dissociation constant of receptor-antagonist complex, Schild analysis; rat cerebral membrane homogenate, pH 7.40, 23° C., 60 min, 1 nM [3H]-MK-801, 300 nM glutamate
Procedure: The glycine antagonism is measured by determining the Ki value which represents the dissociation constant (μM) of the receptor-antagonist complex.
Antagonism enhanced [^3 H]-MK-801 binding (Test 2)
1 ml of thawed and extensively washed rat cerebral membrane homogenate in HEPES-NaOH (20 mM) pH 7.40 were incubated at 23° C. for 60 min. with 25μl[^3 H]-MK-801 (1 nM final concentration), 25 μl glutamate (300 nM final concentration), test compound in concentrations corresponding to 0, 0.5, 2 and 5 times the IC50 value from the [^3 H]-glycine binding assay (test 1) for each concentration of glycine (10; 100; 1,000; 10,000 and 100,000 nM final concentration). The binding reaction was terminated by adding 5 ml of ice- cold buffer followed by rapid filtration through Whatman GF/C glass fiber filters and 5 ml wash with ice-cold buffer. Bound radioactivity was measured by scintillation counting. Ki values were determined by Schild analysis of the data using
log(dosis ration-1)=log[Inhibitor]-log(Ki)

Row | SMILES | activity at the glycine site [1] | IC50 [2] | IC50 [3] | Ki [4]
1 | NC1CCN(O)C1=O (centres unmarked) [HA-966, 3-amino-1-hydroxy-2-pyrrolidone, reference compound] | weak antagonists | 13 µM | 25 µM | 16 µM
2 | O=c1[nH]c2sc3cc(Cl)ccc3c2[nH]c1=O [Example 5, 7-Chloro[1]benzothieno[2,3-b]pyrazine-2,3(1H,4H)-dione] |  | 6 µM |  | 
3 | O=c1[nH]c2sc3ccc(Cl)cc3c2[nH]c1=O [Example 2, 8-Chloro[1] benzothieno[2,3-b]pyrazine-2,3(1H,4H)-dione] |  | 0.056 µM | 0.011 µM | 0.04 µM
4 | COc1cccc2c1sc1[nH]c(=O)c(=O)[nH]c12 [Example 10, 6-Methoxy[1]benzothieno[2,3-b]pyrazine-2,3(lH,4H)-dione] |  | 10.8 µM |  | 
5 | N[C@H](CO)C(=O)O [D-serine] | strong agonist activity |  |  | 
6 | O=C(O)c1cc(O)c2ccc(Cl)cc2n1 [Example 7-Cl-Kyn, 7-chlorokynurenic acid, reference compound] | quite strong antagonists | 1.4 µM | 1.3 µM | 0.71 µM
7 | O=c1[nH]c2sc3ccc(F)cc3c2[nH]c1=O [Example 1, 8-Fluoro[1]benzothieno[2,3-b]pyrazine-2,3(1H,4H)-dione] |  | 0.052 µM | 0.039 µM | 0.008 µM
8 | O=c1[nH]c2sc3ccc(C(F)(F)F)cc3c2[nH]c1=O [Example 9, 8-Trifluoromethyl[1]benzothieno[2,3-b]pyrazine-2,3-(1H, 4H)-dione] |  | 7 µM |  | 
9 | C[C@@H](N)C(=O)O [D-alanine] | strong agonist activity |  |  | 
10 | O=c1[nH]c2sc3cc(Br)c(F)cc3c2[nH]c1=O [Example 14, 7-Bromo-8-fluoro[1]benzothieno[2,3-b]pyrazine-2,3-(1H,4H)-dione] |  | 0.54 µM |  | 
11 | O=c1[nH]c2sc3c(F)cccc3c2[nH]c1=O [Example 13, 6-Fluoro[1]benzothieno[2,3-b]pyrazine-2,3(lH,4H)-dione] |  | 0.262 µM |  | 
12 | O=c1[nH]c2sc3c(Cl)cc(Cl)cc3c2[nH]c1=O [Example 7, 6,8-Dichloro[1]benzothieno[2,3-b]pyrazine-2,3(1H,4H)dione] |  | 0.312 µM | 0.068 µM | 
13 | N[C@@H]1CONC1=O [D-cycloserine] | partial agonists |  |  | 
14 | O=c1[nH]c2sc3ccccc3c2[nH]c1=O [Example 3, [1]Benzothieno[2,3-b]pyrazine-2,3(1H,4H)-dione] |  | 0.284 µM | 0.085 µM | 0.208 µM
15 | O=c1[nH]c2sc3c(Cl)cccc3c2[nH]c1=O [Example 12, 6-Chloro[1]benzothieno[2,3-b]pyrazine-2,3(lH,4H)-dione] |  | 0.18 µM |  | 0.041 µM
16 | O=c1[nH]c2sc3ccc(I)cc3c2[nH]c1=O [Example 8, 8-Iodo[1]benzothieno[2,3-b]pyrazine-2,3(1H,4H)-dione] |  | 1 µM | 0.112 µM | 
17 | O=c1[nH]c2sc3ccc(Br)cc3c2[nH]c1=O [Example 4, 8-Bromo[1]benzothieno[2,3-b]pyrazine-2,3(lH,4H)-dione] |  | 0.069 µM |  | 0.018 µM
18 | N#Cc1cc2[nH]c(=O)c(=O)[nH]c2cc1[N+](=O)[O-] [CNQX, 6-cyano-7-nitroquinoxaline 2,3-dione] | weak antagonists |  |  | 
19 | COc1ccc2c(c1)sc1[nH]c(=O)c(=O)[nH]c12 [Example 11, 7-Methoxy[1]benzothieno[2,3-b]pyrazine-2,3(lH,4H)-dione] |  | 15 µM |  | 
